In US9302999B2, “Substituted triazoles as herbicides” (E. I. DU PONT DE NEMOURS AND COMPANY, priority 2012, dated 2016):

Experiments:
Assay type in all cases: in vivo
soybean (Glycine max) = experiment: Test F pre-/postemergence: soybean
Text: (§1) Seeds of plant species selected from corn (Zea mays), soybean (Glycine max), velvetleaf (Abutilon theophrasti), lambsquarters (Chenopodium album), poinsettia, wild (wild poinsettia, Euphorbia heterophylla), pigweed, palmer (palmer pigweed, Amaranthus palmeri), waterhemp (common waterhemp, Amaranthus rudis), surinam grass (Brachiaria decumbens), crabgrass, Brazil (Brazilian crabgrass, Digitaria horizontalis), panicum, fall (fall panicum Panicum dichotomiflorum), crabgrass, large (large crabgrass, Digitaria sanguinalis), foxtail, giant (giant foxtail, Setaria faberii), foxtail, green (green foxtail Setaria viridis), goosegrass (Eleusine indica), ragweed (common ragweed, Ambrosia elatior), barnyardgrass (Echinochloa crus-galli), sandbur (southern sandbur, Cenchrus echinatus), arrowleaf sida (Sida rhombifolia), ryegrass, Italian (Italian ryegrass, Lolium multiflorum), dayflower, VA (Virginia (VA) dayflower, Commelina virginica), field bindweed (Convolvulus arvensis), cocklebur (common cocklebur, Xanthium strumarium), morningglory (Ipomoea coccinea), nightshade (eastern black nightshade, Solanum ptycanthum), kochia (Kochia scoparia), nutsedge, yellow (yellow nutsedge, Cyperus esculentus), johnsongrass (Sorghum halepense), smartweed (ladysthumb smartweed, Polygonum persicaria), and beggarticks (hairy beggarticks, Bidens pilosa), were planted into a silt loam soil and treated preemergence with test chemicals formulated in a non-phytotoxic solvent mixture which included a surfactant. At the same time, plants selected from these crop and weed species and also pigweed (Amaranthus retroflexus), waterhemp_RES1 (ALS/Triazine resistant common waterhemp, Amaranthus rudis) and waterhemp_RES2 (ALS/HPPD resistant common waterhemp, Amaranthus rudis) were planted in pots containing a planting medium comprising spaghnum peat moss, vermiculite, wetting agent and starter nutrients treated with postemergence applications of some of the test chemicals formulated in the same manner. Plants ranged in height from 2 to 18 cm for postemergence treatments (1- to 4-leaf stage).
(§2) Treated plants and controls were maintained in a greenhouse for 14 to 21 days, after which time all species were compared to controls and visually evaluated. Plant response ratings, summarized in Table E, are based on a scale of 0 to 100 where 0 is no effect and 100 is complete control. A dash (-) response means no test result.

[1] = system: velvetleaf (Abutilon theophrasti); experiment: Test F pre-/postemergence: velvetleaf; conditions: Preemergence
Text: as §1, §2

[2] = system: ragweed (common ragweed, Ambrosia elatior); experiment: Test F pre-/postemergence: ragweed; conditions: Preemergence
Text: as §1, §2

[3] = system: sandbur (southern sandbur, Cenchrus echinatus); experiment: Test F pre-/postemergence: sandbur
Text: as §1, §2

[4] = system: ryegrass, Italian (Italian ryegrass, Lolium multiflorum); experiment: Test F pre-/postemergence: ryegrass, Italian
Summary of the method: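 Seeds were sown in silt loam soil and sprayed preemergence with test chemical in a non-phytotoxic solvent mixture containing surfactant; postemergence treatments went onto plants 2 to 18 cm tall (1- to 4-leaf stage) grown in peat moss/vermiculite medium. After 14 to 21 days in a greenhouse, injury was rated visually against controls, 0 (no effect) to 100 (complete control).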

[5] = system: nightshade (eastern black nightshade, Solanum ptycanthum); experiment: Test F pre-/postemergence: nightshade; conditions: Preemergence
Text: as §1, §2

[6] = Preemergence, 16 g ai/ha, scale 0 to 100, 0 no effect, 100 complete control
[7] = Preemergence, 31 g ai/ha, scale 0 to 100, 0 no effect, 100 complete control
[8] = Preemergence, 125 g ai/ha, scale 0 to 100
[9] = Preemergence, 250 g ai/ha, scale 0 to 100
[10] = 16 g ai/ha, scale 0 to 100, 0 no effect, 100 complete control
[11] = 31 g ai/ha, scale 0 to 100, 0 no effect, 100 complete control
[12] = Postemergence, 250 g ai/ha, scale 0 to 100
[13] = Postemergence, 16 g ai/ha, scale 0 to 100
[14] = Postemergence, 31 g ai/ha, scale 0 to 100
[15] = Postemergence, 62 g ai/ha, scale 0 to 100
[16] = Postemergence, 125 g ai/ha, scale 0 to 100

SMILES | Plant response rating, Soybean (soybean (Glycine max); [6]) | Plant response rating, Soybean (soybean (Glycine max); [7]) | Plant response rating, Soybean (soybean (Glycine max); [8]) | Plant response rating, Soybean (soybean (Glycine max); [9]) | Plant response rating, Velvetleaf [1, 10] | Plant response rating, Velvetleaf [1, 11] | Plant response rating, Velvetleaf ([1]; 125 g ai/ha, scale 0 to 100) | Plant response rating, Velvetleaf ([1]; 250 g ai/ha, scale 0 to 100) | Plant response rating, Sandbur [3, 6] | Plant response rating, Sandbur [3, 7] | Plant response rating, Sandbur [3, 8] | Plant response rating, Sandbur [3, 9] | Plant response rating, Ryegrass, Italian [4, 6] | Plant response rating, Ryegrass, Italian [4, 7] | Plant response rating, Ryegrass, Italian [4, 8] | Plant response rating, Ryegrass, Italian [4, 9] | Plant response rating, Nightshade [5, 10] | Plant response rating, Nightshade [5, 11] | Plant response rating, Nightshade ([5]; 125 g ai/ha, scale 0 to 100) | Plant response rating, Nightshade ([5]; 250 g ai/ha, scale 0 to 100) | other results
COc1nn(-c2cccc(F)c2)nc1Cc1ccnc(C(F)(F)F)c1 [Compound 139] | 0 | 0 | 0 | 35 | 0 | 0 | 0 | 65 | 0 | 5 | 35 | 40 | 0 | 5 | 30 | 95 | 20 | 35 | 100 | 100 | Plant response rating, Ragweed [2, 10]: 0; Plant response rating, Ragweed [2, 11]: 0; Plant response rating, Ragweed ([2]; 125 g ai/ha, scale 0 to 100): 0; Plant response rating, Ragweed ([2]; 250 g ai/ha, scale 0 to 100): 0
Cc1nn(-c2ccc(F)cc2F)nc1Oc1ccnc(C(F)(F)F)c1 [Compound 146] | 0 | 0 | 0 | 0 | 0 | 0 | 0 | 25 | 0 | 0 | 25 | 70 | 0 | 10 | 20 | 25 | 0 | 10 | 65 | 100 | Plant response rating, Ragweed [2, 10]: 0; Plant response rating, Ragweed [2, 11]: 0; Plant response rating, Ragweed ([2]; 125 g ai/ha, scale 0 to 100): 0; Plant response rating, Ragweed ([2]; 250 g ai/ha, scale 0 to 100): 25
CCc1nn(-c2ccc(F)cc2)nc1Cc1ccnc(C(F)(F)F)c1 [Compound 154] | 0 | 0 | 25 | 25 | 0 | 20 | 40 | 100 | 0 | 30 | 98 | 100 | 0 | 0 | 70 | 100 | 0 | 10 | 90 | 100 | Plant response rating, Ragweed [2, 10]: 0; Plant response rating, Ragweed [2, 11]: 0; Plant response rating, Ragweed ([2]; 125 g ai/ha, scale 0 to 100): 0; Plant response rating, Ragweed ([2]; 250 g ai/ha, scale 0 to 100): 40
CCc1nn(-c2ccc(C(F)(F)F)cc2)nc1Oc1ccnc(C(F)(F)F)c1 [Compound 169] | 0 | 0 | – | 20 | 0 | 0 | 60 | 100 | 0 | 20 | 65 | 75 | 0 | 0 | 100 | 100 | 0 | 80 | 100 | 100 | Plant response rating, Soybean (soybean (Glycine max); [12]): 50; Plant response rating, Soybean (soybean (Glycine max); [13]): 20; Plant response rating, Soybean (soybean (Glycine max); [14]): 20; Plant response rating, Soybean (soybean (Glycine max); [15]): 30; Plant response rating, Soybean (soybean (Glycine max); [16]): 40; Plant response rating, Ragweed [2, 10]: 0; Plant response rating, Ragweed [2, 11]: 0; Plant response rating, Ragweed ([2]; 125 g ai/ha, scale 0 to 100): 60; Plant response rating, Ragweed ([2]; 250 g ai/ha, scale 0 to 100): 100; Plant response rating, Sandbur [3, 12]: 25; Plant response rating, Sandbur [3, 13]: 15; Plant response rating, Sandbur [3, 14]: 15; Plant response rating, Sandbur [3, 15]: 20; Plant response rating, Sandbur [3, 16]: 20; Plant response rating, Ryegrass, Italian [4, 12]: 30; Plant response rating, Ryegrass, Italian [4, 13]: 0; Plant response rating, Ryegrass, Italian [4, 14]: 0; Plant response rating, Ryegrass, Italian [4, 15]: 20; Plant response rating, Ryegrass, Italian [4, 16]: 20
CCc1nn(-c2ccc(F)c(F)c2)nc1Oc1ccnc(C(F)(F)F)c1 [Compound 171] | 0 | 0 | 0 | 20 | 0 | 0 | 15 | 50 | 0 | 5 | 50 | 50 | 0 | 0 | 25 | 50 | 0 | 0 | 5 | 5 | –
CCCc1nn(-c2ccc(F)c(F)c2)nc1Oc1ccnc(C(F)(F)F)c1 [Compound 172] | – | 0 | 20 | 20 | – | 0 | 80 | 100 | – | 5 | 70 | 100 | – | 35 | 100 | 100 | – | 5 | 100 | 100 | Plant response rating, Soybean (soybean (Glycine max); [12]): 90; Plant response rating, Soybean (soybean (Glycine max); [14]): 50; Plant response rating, Soybean (soybean (Glycine max); [16]): 75; Plant response rating, Sandbur [3, 12]: 40; Plant response rating, Sandbur [3, 14]: 20; Plant response rating, Sandbur [3, 16]: 30; Plant response rating, Ryegrass, Italian [4, 12]: 50; Plant response rating, Ryegrass, Italian [4, 14]: 20; Plant response rating, Ryegrass, Italian [4, 16]: 40
